These results are taken from US10828305B2 (SHANGHAI PHARMACEUTICALS HOLDING CO., LTD., priority 2016, dated 2020).

Where two headings read alike, the source gives them in different places.

Series [1] can be described thus: In vivo pharmacokinetics study in rats. The following applies: male, SD, rat, plasma, po, iv 3 mg/kg, intragastric 6 mg/kg, read-out: Absolute bioavailability F. Here is the method: In Vivo Pharmacokinetics Study in Rats and Mice
5 male SD rats, with weight of 180 to 220 g. The rats were fasted for 12 to 16 hours before the experiment, without restricting drinking water. Two rats were intravenously administrated with dosing solution (3 mL/kg, 1 mg/mL) at a dose of 3 mg/kg, 0.4 mL blood sample was taken from venous plexus of the fundus of the eye into a pre-heparinized centrifuge tube (sodium heparin solution 10 μL/tube) before administration and 2, 5, 15, 30, 60, 90, 120, 240, 360, 480, 720, 1440 min after administration, respectively. Three rats were intragastricly administrated with dosing suspension (8 mL/kg, 0.75 mg/mL) at a dose of 6 mg/kg, 0.4 mL blood sample was taken from venous plexus of the fundus of the eye into a pre-heparinized centrifuge tube (sodium heparin solution 10 μL/tube) before administration and 5, 15, 30, 60, 90, 120, 240, 360, 480, 720, and 1440 min after administration, respectively. […]
Taking 50 μL plasma sample of rat or mouse, adding […] acetonitrile containing internal standard (propranolol, 2.5 ng/ml) to precipitate protein. Vortexing for 10 min, centrifuging at 6000 g for 10 min, the supernatant was taken and diluted with mobile phase in a 96-well plate, the drug concentration in plasma was measured by UPLC/MS-MS. […]

For series [2], the system named is human breast cancer BT-474 xenograft. The note with it: oral, 20 days.
For a further series, the target named is T1, CYP2C19 (Homo sapiens, UniProt P33261).
T1 construct: from tissue; host or cells: human liver microsomes
Briefly: Direct inhibition of CYP2C19, human liver microsome. The following applies: probe mephenytoin, read-out: IC50 2C19 (Mephenytoin). The format is in vitro ADME. Here is the method: (§1) Research on Direct Inhibition of CYP3A4, CYP2D6, CYP2C9, CYP2C19, CYP1A2
(§2) 100 μL human liver microsome (with final concentration of 0.2 mg/mL) was used for direct inhibition under warm incubation, the positive control system contained NADPH (with final concentration of 1 mmol/L), a mixture of positive inhibitors (ketoconazole 0.01 to 10 μmol/L, quinidine 0.01 to 10 μmol/L, sulfaphenazole 0.1 to 100 μmol/L, tranylcypromine 1 to 1000 μmot/L, α-naphthoflavone 0.01 to 10 μmol/L), and a substrate mixture (with final concentration of midazolam 10 μmol/L, testosterone 100 μmol/L, dextromethorphan 10 μmol/L, diclofenac 20 μmol/L, S-mephenytoin 50 μmol/L, phenacetin 100 μmol/L), and the reaction was terminated after incubation for 20 min. The positive inhibitor was replaced with 0.1 to 100 μmol/L test compound in the test compound group. The reaction was terminated with acetonitrile containing 0.11 μg/mL internal standard tinidazole (1:3), vortexed for 10 min, centrifuged at 6000×g for 10 min, 50 μL supernatant was taken and put into a 96-well plate for injection.
(§3) In this experiment, IC50 of inhibition of the compound on the enzyme was calculated by measuring relative production of the probe metabolite. The activity of CYP3A4 was simultaneously characterized by two probes of midazolam and testosterone.

A further series addresses T2, CYP1A2 (Homo sapiens, UniProt P05177).
T2 construct: from tissue; host or cells: human liver microsomes
T2 sequence (P05177 1-516): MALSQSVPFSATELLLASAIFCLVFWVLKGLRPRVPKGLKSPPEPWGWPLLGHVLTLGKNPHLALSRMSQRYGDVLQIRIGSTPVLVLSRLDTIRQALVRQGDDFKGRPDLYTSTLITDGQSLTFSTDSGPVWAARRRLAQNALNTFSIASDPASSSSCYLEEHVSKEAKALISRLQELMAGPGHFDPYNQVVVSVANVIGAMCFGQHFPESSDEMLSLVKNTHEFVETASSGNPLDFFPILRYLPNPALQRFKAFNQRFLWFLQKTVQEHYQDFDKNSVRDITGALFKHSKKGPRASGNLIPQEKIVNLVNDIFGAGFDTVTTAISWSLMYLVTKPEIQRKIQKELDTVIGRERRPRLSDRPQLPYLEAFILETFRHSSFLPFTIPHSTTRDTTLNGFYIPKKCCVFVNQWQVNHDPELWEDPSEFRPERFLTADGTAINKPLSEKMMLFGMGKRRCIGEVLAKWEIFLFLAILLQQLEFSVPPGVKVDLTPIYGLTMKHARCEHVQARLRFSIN
Briefly: Direct inhibition of CYP1A2, human liver microsome. The note with it: probe phenacetin, read-out: IC50 1A2 (Phenacetin). The format is in vitro ADME. As for the experimental part:
as §1, §2, §3

Another series addresses T3, CYP2D6 (Homo sapiens, UniProt P10635).
T3 construct: from tissue; host or cells: human liver microsomes
Briefly: Direct inhibition of CYP2D6, human liver microsome. The series is classed as in vitro ADME. The note with it: probe dextromethorphan, read-out: IC50 2D6 (Dextromethorphan). Here is the method: as §1, §2, §3

T3 sequence (P10635 whole entry): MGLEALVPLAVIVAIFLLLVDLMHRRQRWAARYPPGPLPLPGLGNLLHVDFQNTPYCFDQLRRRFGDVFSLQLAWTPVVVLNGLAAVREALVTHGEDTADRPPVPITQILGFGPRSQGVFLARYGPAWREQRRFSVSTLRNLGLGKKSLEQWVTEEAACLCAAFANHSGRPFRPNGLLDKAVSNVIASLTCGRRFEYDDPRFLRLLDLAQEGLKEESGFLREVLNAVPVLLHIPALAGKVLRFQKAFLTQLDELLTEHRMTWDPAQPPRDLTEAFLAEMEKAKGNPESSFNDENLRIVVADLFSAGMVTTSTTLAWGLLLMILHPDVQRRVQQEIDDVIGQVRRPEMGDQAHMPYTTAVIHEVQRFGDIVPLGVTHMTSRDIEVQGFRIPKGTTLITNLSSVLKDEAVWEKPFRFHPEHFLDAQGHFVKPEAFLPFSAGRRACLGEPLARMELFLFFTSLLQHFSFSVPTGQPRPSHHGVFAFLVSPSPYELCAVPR
T1 sequence (P33261 whole entry): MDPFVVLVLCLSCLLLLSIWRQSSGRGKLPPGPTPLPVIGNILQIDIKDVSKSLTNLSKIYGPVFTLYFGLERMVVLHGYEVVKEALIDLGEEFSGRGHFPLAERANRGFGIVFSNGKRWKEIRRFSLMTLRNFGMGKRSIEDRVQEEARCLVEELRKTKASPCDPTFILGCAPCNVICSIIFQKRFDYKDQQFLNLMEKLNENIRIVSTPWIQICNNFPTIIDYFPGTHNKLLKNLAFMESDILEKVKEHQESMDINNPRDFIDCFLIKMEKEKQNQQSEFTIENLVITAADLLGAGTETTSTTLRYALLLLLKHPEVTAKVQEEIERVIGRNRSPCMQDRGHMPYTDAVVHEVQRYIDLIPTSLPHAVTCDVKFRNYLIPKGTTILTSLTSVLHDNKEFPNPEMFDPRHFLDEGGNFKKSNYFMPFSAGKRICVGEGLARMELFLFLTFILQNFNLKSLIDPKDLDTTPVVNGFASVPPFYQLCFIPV

`Cc1cc(Nc2ncnc3ccc(NC4=NC(C)(C)CO4)cc23)ccc1Oc1ccn2ncnc2c1` [ARRY-380, reference compound]: in series [1], the bioavailability is 9.5%. For the same compound, the “tumor volume inhibition rate (GI %)” value in series [2] (100MPK) is reported as 108.8%. Further, the results for the IC50 on CYP2C19, at CYP1A2 and at CYP2D6 were 35 µM, 94 µM and 3 µM, respectively.
On to `Cc1cc(Nc2ncnc3ccc(NC4=NC(C)(C)CO4)cc23)ccc1Oc1cc2nncn2cn1` [Embodiment 4, N^4-(4-([1,2,4]triazolo[4,3-c]pyrimidin-7-yloxy)-3-methylphenyl)-N^6-(4,4-dimethyl-4,5-dihydrooxazol-2-yl)quinazoline-4,6-diamine], for which, in series [1], the bioavailability is 15.4%. Further, the “tumor volume inhibition rate (GI %)” value in series [2] (25MPK) is reported as 70.3%; in series [2] (50MPK), 103.2%; in series [2] (100MPK), 126.4%. Moreover, the tolerability result in series [2] was “good tolerability”. The values for the IC50 at CYP2C19, at CYP1A2 and at CYP2D6 were 53 µM, 34 µM and 12 µM, respectively.
